Patent publication EP2805705B1, “Packaging with one or more administration units comprising a sodium salt of (R)-3-[6-amino-pyridin-3-yl]-2-(1-cyclohexyl-1 H-imidazol-4-yl)-propionic acid” (IP Gesellschaft für Management mbH, priority 2013, dated 2014)

How the values were obtained:
Format in all cases: physicochemical
[1] = Chiral stability on storage as a solid at 40 °C and 75 % RH (chiral HPLC)
Procedure: Example 8: Chiral stability: Representative samples of the crystalline sodium salt of (R)-3-[6-amino-pyridin-3-yl]-2-(1-cyclohexyl-1 H-imidazol-4-yl)-propionic acid sodium salt dihydrate as prepared in Example 3 were stored as a solid under the conditions (A) and (B): (A) 40 °C and 75 % RH 2 weeks; (B) 40 °C and 75 % RH 4 weeks: Results are shown in the following table:
Under the storage conditions the samples remain stable. […] The purity was determined by chiral HPLC on a HPLC system containing a Quaternary HPLC pump (e.g. HP 1100), an auto sampler, an UV absorbance detector (e.g. DAD Agilent Technologies or other adequate HPLC-System) and a computer data acquisition system with suitable software (e.g. Dionex-Chromeleon). A Zorbax SB_CN (4.6 x 100 mm, 3.5 µlτ ? ), column was used as stationary phase and two mobile phases A (975 mL water, 25 mL methanol, 1 mL perchloric acid) and B (975 mL methanol, 25 mL water) were used as mobile phases. The flow rate was set to a value of 1.0 mL/minute and the oven temperature was set to 15°C. Detection was performed by absorbance of the compounds at 236 nm (UV) (bandwidth: 4 nm) and reference wavelength was set to 450 nm (bandwidth: 50 nm). Typical total run times were in the range of about 10 minutes. For sample preparation 20 mg of the substance were accurately weighed into a 10 ml volumetric flask and dissolved and diluted to volume with solvent (acetonitrile/water 90:10 VN). Afterwards 1 ml of this solution was transferred to a 10 mL volumetric flask and then diluted to volume with water. For the HPLC analysis 5 µl of the sample were injected into the system. Gradient used: 0 min (time elapsed) 0% mobile phase B, 1 min 0% mobile phase B, 4 min 53% mobile phase B, 6 min 95% mobile phase B, 7 min 95% mobile phase B, 7.5 min 0% mobile phase B and after 10 min 0% mobile phase B. Enanatiomeric excess was determined by chiral HPLC on a HPLC system containing a Quaternary HPLC pump (e.g. HP 1100), an auto sampler, an UV absorbance detector (e.g. DAD Agilent Technologies or other adequate HPLC-System) and a computer data acquisition system with suitable software (e.g. Dionex-Chromeleon). A Chirobiotic R, Supelco (Astec) (4.6 x 250mm; 5µηη) column was used as stationary phase and a solution of 800 mL water, 1200 mL acetonitrile and 1.0 g ammoniumacetate was used as mobile phase. The flow rate was set to a value of 1.5 mL/minute and the oven temperature was set to 45°C. Detection was performed by absorbance of the compounds at 236 nm (UV) (bandwidth: 8 nm) and reference wavelength was set to 450 nm (bandwidth: 50 nm). Typical total run times were in the range of about 15 minutes. For sample preparation 50 mg of the substance were accurately weighed into a 10 mL volumetric flask and dissolved and diluted to volume with solvent (acetonitrile/water 50:50). For the HPLC analysis 5 µí of the sample were injected into the system. Gradient used: Isograt (15 minutes 100% mobile phase A).
Example 10: Chiral stability; Comparison Experiment: (R)-3-[6-amino-pyridin-3-yl]-2-(1-cyclohexyl-1 H-imidazol-4-yl)-propionic acid as prepared in Example 1 was used for the measurement. Representative samples of the compound (R)-3-[6-amino-pyridin-3-yl]-2-(1-cyclohexyl-1 H-imidazol-4-yl)-propionic acid as prepared in Example 1 were stored as a solid under the conditions (A) and (B) as defined in Example 8.

[2] = Dynamic vapor sorption (DVS), SPS11-10µ, one cycle at 25 °C; conditions: DVS isotherm at 25 °C
Procedure: (§1) Example 7: Dynamic vapor sorption (DVS) of (R)-3-[6-amino-pyridin-3-yl]-2-(1-cyclohexyl-1 H-imidazol-4-yl)-propionic acid sodium salt monohydrate: Moisture sorption/desorption isotherms were recorded on a SPS11-10µ from Projekt Messtechnik (Ulm, Germany). One cycle was run at 25 °C, in which the sample was first stepwise decreased to 0% RH and then the relative humidity was stepwise increased from 0 to 95% and the weight of the sample was measured. Typical total measurement times for both cycles were about 20 to 30 hours. The measured data for the (R)-3-[6-amino-pyridin-3-yl]-2-(1-cyclohexyl-1 H-imidazol-4-yl)-propionic acid sodium salt monohydrate as prepared in Examples 2 or 3 are shown in the following table: DVS Isotherm at 25 °C:
(§2) Example 12: DVS, Comparison Experiment: (R)-3-[6-amino-pyridin-3-yl]-2-(1-cyclohexyl-1 H-imidazol-4-yl)-propionic acid as prepared in Example 1 was used for the measurement. The measurement was performed as disclosed in Example 7 with (R)-3-[6-amino-pyridin-3-yl]-2-(1-cyclohexyl-1 H-imidazol-4-yl)-propionic acid (free acid, amorphous) and the received data are shown in the following table: DVS Isotherm at 25 °C
as §1, with “(DVS):” for “(DVS) of (R)-3-[6-amino-pyridin-3-yl]-2-(1-cyclohexyl-1 H-imidazol-4-yl)-propionic acid sodium salt monohydrate:”, “Room humidity (RH)” for “RH”, “dihydrate” for “monohydrate”, “Example” for “Examples 2 or”, “isotherm” for “Isotherm”, “25°C:” for “25 °C:”
as §2, with “9:” for “12:”

[3] = Dynamic vapor sorption (DVS), DVS-1 instrument, two cycles at 25 °C; conditions: for weight increase in the sorption step: 25 °C
[4] = Determination of solubility in a mixture of acetone and water (4:1, by volume); conditions: for Solubility [g in 100 g of solvent]: acetone and water (4:1, by volume); for solubility compared with polymorph 1: result in words
Procedure: Determination of solubility: For the determination of the solubility in a mixture of acetone and water (4:1, by volume), samples of 0.5 mg to 50 mg of the test substances were suspended in a defined amount of the solvent (800 mg to 1200 mg) in screw cap vials with a magnetic stirring bar, which were placed in a temperature-controlled multiple stirring device equipped for transmission measurement (Avantium Crystal 16). With stirring at 700 rpm, the vials were cooled from room temperature to 0 °C and then heated to 60 °C with a heating rate of 3 °C/h, kept at 60 °C for 2 h and cooled again to 0 °C with a cooling rate of 3 °C/h. By means of transmission measurement it was determined whether the sample was dissolved (100 % transmission), or crystals were present. For polymorph 1 ({drug5b}), polymorph 2 ({drug5c}), hydrate 1 ({drug5e}) and hydrate 2 ({drug5f}) of compound (V) the following solubilities in a mixture of acetone and water (4:1, by volume) were determined.

## Nc1ccc(C[C@@H](C(=O)[O-])c2cn(C3CCCCC3)cn2)cn1.O.O.[Na+] [(R)-3-[6-amino-pyridin-3-yl]-2-(1-cyclohexyl-1 H-imidazol-4-yl)-propionic acid sodium salt dihydrate]
[1]; Storage condition (A) 40 °C and 75 % RH 2 weeks, stored as a solid
  Enantiomeric excess: 99.6%
[1]; Storage condition (B) 40 °C and 75 % RH 4 weeks, stored as a solid
  Enantiomeric excess: 99.5%
[1]; at the beginning
  Enantiomeric excess: 99.6%
[2]; Target RH 0.3 %
  Change In Mass (%) Desorption: -0.1%
[2]; Target RH 10.0 %
  Change In Mass (%) Desorption: 0.0%
  Change In Mass (%) Sorption: 0.0%
[2]; Target RH 20.0 %
  Change In Mass (%) Sorption: 0.0%
[2]; Target RH 20.1 %
  Change In Mass (%) Desorption: 0.0%
[2]; Target RH 30.0 %
  Change In Mass (%) Sorption: 0.0%
[2]; Target RH 30.1 %
  Change In Mass (%) Desorption: 0.0%
[2]; Target RH 40.0 %
  Change In Mass (%) Sorption: 0.0%
[2]; Target RH 50.0 %
  Change In Mass (%) Sorption: 0.0%
[2]; Target RH 60.0 %
  Change In Mass (%) Sorption: 0.1%
[2]; Target RH 70.1 %
  Change In Mass (%) Sorption: 0.71%
[2]; Target RH 75.0 %
  Change In Mass (%) Sorption: 0.8%
[2]; Target RH 80.0 %
  Change In Mass (%) Sorption: 2.1%
[2]; Target RH 85.1 %
  Change In Mass (%) Sorption: 2.7%
[2]; Target RH 90.1 %
  Change In Mass (%) Sorption: 18.8%
[2]; Target RH 94.9 %
  Change In Mass (%) Sorption: 51.8%

## CNc1nccc(-c2cc3cc(C(=O)N[C@@H](CN(c4ccccc4)c4ncccn4)C(N)=O)ccc3[nH]2)n1 [Polymorph 2, 2-(2-methylamino-pyrimidin-4-yl)-1 H-indole-5-carboxylic acid [(S)-1-carbamoyl-2-(phenyl-pyrimidin-2-yl-amino)-ethyl]-amide]
[3]; Relative humidity 40 %, first cycle
  weight increase in the sorption step: 0.2%
[3]; Relative humidity 40 %, second cycle
  weight increase in the sorption step: 0.0%
[3]; Relative humidity 60 %, first cycle
  weight increase in the sorption step: 0.3%
[3]; Relative humidity 60 %, second cycle
  weight increase in the sorption step: 0.1%
[3]; Relative humidity 80 %, first cycle
  weight increase in the sorption step: 0.4%
[3]; Relative humidity 80 %, second cycle
  weight increase in the sorption step: 0.3%
[3]; Relative humidity 95 %, first cycle
  weight increase in the sorption step: 0.8%
[3]; Relative humidity 95 %, second cycle
  weight increase in the sorption step: 0.6%
[3]; at a high relative humidity of 80 %
  water uptake (hygroscopicity): about 0.4%
[4]; Temperature 46.0 °C
  Solubility [g in 100 g of solvent]: 1.02 g in 100 g of solvent
[4]; Temperature 57.5 °C
  Solubility [g in 100 g of solvent]: 2.48 g in 100 g of solvent
[4]
  solubility compared with polymorph 1: higher solubility than polymorph 1

## Nc1ccc(C[C@@H](C(=O)[O-])c2cn(C3CCCCC3)cn2)cn1.O.[Na+] [(R)-3-[6-amino-pyridin-3-yl]-2-(1-cyclohexyl-1 H-imidazol-4-yl)-propionic acid sodium salt monohydrate]
[2]; Target RH 0.2 %
  Change In Mass (%) Desorption: -4.4%
[2]; Target RH 10.0 %
  Change In Mass (%) Desorption: -0.6%
  Change In Mass (%) Sorption: -3.7%
[2]; Target RH 20.0 %
  Change In Mass (%) Desorption: -0.1%
  Change In Mass (%) Sorption: -0.2%
[2]; Target RH 30.0 %
  Change In Mass (%) Sorption: 0.2%
[2]; Target RH 30.1 %
  Change In Mass (%) Desorption: 0.1%
[2]; Target RH 40.0 %
  Change In Mass (%) Sorption: 0.6%
[2]; Target RH 50.0 %
  Change In Mass (%) Sorption: 0.9%
[2]; Target RH 60.0 %
  Change In Mass (%) Sorption: 1.5%
[2]; Target RH 70.0 %
  Change In Mass (%) Sorption: 4.0%
[2]; Target RH 75.0 %
  Change In Mass (%) Sorption: 8.2%
[2]; Target RH 80.1 %
  Change In Mass (%) Sorption: 11.9%
[2]; Target RH 85.1 %
  Change In Mass (%) Sorption: 17.7%
[2]; Target RH 90.0 %
  Change In Mass (%) Sorption: 38.2%
[2]; Target RH 94.9 %
  Change In Mass (%) Sorption: 67.4%

## CNc1nccc(-c2cc3cc(C(=O)N[C@@H](CN(c4ccccc4)c4ncccn4)C(N)=O)ccc3[nH]2)n1.O.O [Hydrate 1, 2-(2-methylamino-pyrimidin-4-yl)-1 H-indole-5-carboxylic acid [(S)-1-carbamoyl-2-(phenyl-pyrimidin-2-yl-amino)-ethyl]-amide dihydrate]
[3]; result in words
  hygroscopicity: low hygroscopicity
[4]; Temperature 38.6 °C
  Solubility [g in 100 g of solvent]: 2.11 g in 100 g of solvent
[4]; Temperature 49.7 °C
  Solubility [g in 100 g of solvent]: 3.39 g in 100 g of solvent
[4]; Temperature 57.4 °C
  Solubility [g in 100 g of solvent]: 5.04 g in 100 g of solvent
[4]
  solubility compared with polymorph 1: higher solubility than polymorph 1

## CNc1nccc(-c2cc3cc(C(=O)N[C@@H](CN(c4ccccc4)c4ncccn4)C(N)=O)ccc3[nH]2)n1.O.O.O.O.O.O [Hydrate 2, 2-(2-methylamino-pyrimidin-4-yl)-1 H-indole-5-carboxylic acid [(S)-1-carbamoyl-2-(phenyl-pyrimidin-2-yl-amino)-ethyl]-amide hexahydrate]
[4]; Temperature 36.8 °C
  Solubility [g in 100 g of solvent]: 0.50 g in 100 g of solvent
[4]; Temperature 46.1 °C
  Solubility [g in 100 g of solvent]: 1.02 g in 100 g of solvent
[4]; Temperature 55.9 °C
  Solubility [g in 100 g of solvent]: 2.61 g in 100 g of solvent
[4]
  solubility compared with polymorph 1: higher solubility than polymorph 1
